Test results taken from ChEMBL document CHEMBL4715726, “Identification, characterization, kinetics, and molecular docking of flavonoid constituents from Archidendron clypearia (Jack.) Nielsen leaves and twigs” (Bioorg Med Chem, 2016).

How the values were obtained:
[1] = target: T1, Bifunctional epoxide hydrolase 2 (Homo sapiens) (UniProt P34913); experiment: Inhibition of sEH (unknown origin) assessed as reduction in 6-methoxy-2-naphthaldehyde formation at 100 uM using PHOME as substrate measured after 40 mins by fluorescence photometry analysis relative to control
T1 sequence (whole entry): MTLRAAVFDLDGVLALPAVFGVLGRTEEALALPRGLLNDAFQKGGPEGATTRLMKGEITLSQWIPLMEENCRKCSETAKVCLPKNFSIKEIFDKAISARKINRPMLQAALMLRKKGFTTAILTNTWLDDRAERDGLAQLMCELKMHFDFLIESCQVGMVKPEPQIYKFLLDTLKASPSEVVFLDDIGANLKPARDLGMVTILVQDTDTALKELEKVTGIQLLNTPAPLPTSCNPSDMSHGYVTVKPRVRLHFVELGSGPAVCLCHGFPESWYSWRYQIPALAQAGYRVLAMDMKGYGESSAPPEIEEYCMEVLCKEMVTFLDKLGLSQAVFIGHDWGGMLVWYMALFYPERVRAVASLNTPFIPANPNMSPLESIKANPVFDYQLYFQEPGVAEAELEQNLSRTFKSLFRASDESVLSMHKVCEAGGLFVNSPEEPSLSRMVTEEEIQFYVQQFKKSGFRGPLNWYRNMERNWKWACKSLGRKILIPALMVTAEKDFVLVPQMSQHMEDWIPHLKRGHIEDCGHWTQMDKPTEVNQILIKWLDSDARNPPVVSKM

[2] = target: T2, Bifunctional epoxide hydrolase 2 (Homo sapiens, UniProt P34913); experiment: Mixed type inhibition of sEH (unknown origin) using varying levels of PHOME as substrate by Dixon plot analysis
T2 sequence (P34913 whole entry): T1 sequence (whole entry)

[3] = target: T2, Bifunctional epoxide hydrolase 2; experiment: Inhibition of sEH (unknown origin) assessed as reduction in 6-methoxy-2-naphthaldehyde formation using PHOME as substrate measured after 40 mins by fluorescence photometry analysis
[4] = target: T1, Bifunctional epoxide hydrolase 2 (Homo sapiens); conditions: dose 25.0 nM, time 40.0 min
[5] = target: T2, Bifunctional epoxide hydrolase 2; experiment: Non competitive inhibition of sEH (unknown origin) using varying levels of PHOME as substrate by Dixon plot analysis
[6] = target: T2, Bifunctional epoxide hydrolase 2; experiment: Competitive inhibition of sEH (unknown origin) using varying levels of PHOME as substrate by Dixon plot analysis

Row | Compound | inhibition [1] [%] | IC50 [3] [µM] | further results
1 | COc1cc(O)c2c(=O)cc(-c3ccc(O[C@@H]4O[C@H](CO)[C@@H](O)[C@H](O)[C@H]4O[C@@H]4OC[C@](O)(CO)[C@H]4O)c(OC)c3)oc2c1 | 66.1 | – | –
2 | COc1cc(O)c2c(=O)c(O)c(-c3ccc(O[C@@H]4O[C@H](CO)[C@@H](O)[C@H](O)[C@H]4O[C@@H]4OC[C@](O)(CO)[C@H]4O)c(OC)c3)oc2c1 | 64.1 | – | –
3 | COc1cc(O)c2c(=O)cc(-c3ccc(O[C@@H]4O[C@H](CO)[C@@H](O)[C@H](O)[C@H]4O)c(OC)c3)oc2c1 | 98.5 | 17.5 | Ki [2]: 37.1 µM
4 | CCCCOC(=O)CCCCCCCCCCCNC(=O)NC12CC3CC(CC(C3)C1)C2 | – | – | inhibition [4]: 58.9%
5 | COc1cc(O)c(C(=O)/C=C/c2ccc(O)c(OC)c2)c(O[C@@H]2O[C@H](CO)[C@@H](O)[C@H](O)[C@H]2O)c1 | 56.3 | – | –
6 | C[C@@H]1O[C@@H](Oc2c(-c3ccc(O)c(O)c3)oc3cc(O)cc(O)c3c2=O)[C@H](O)[C@H](O)[C@H]1O [QUERCITRIN] | 78.5 | 11.8 | Ki [5]: 39.6 µM
7 | O=C(Oc1cc(O)c2c(c1)O[C@H](c1cc(O)c(O)c(O)c1)CC2)c1cc(O)c(O)c(O)c1 | 90.8 | 10 | Ki [2]: 45.5 µM
8 | COc1cc(O)c2c(=O)c(OC)c(-c3ccc(O[C@@H]4O[C@H](CO)[C@@H](O)[C@H](O)[C@H]4O[C@@H]4OC[C@](O)(CO)[C@H]4O)c(OC)c3)oc2c1 | 90.8 | 12 | Ki [5]: 18.2 µM
9 | COc1cc(O)c2c(=O)c(O[C@@H]3O[C@H](CO)[C@@H](O)[C@H](O)[C@H]3O)c(-c3ccc(O[C@@H]4O[C@H](CO)[C@@H](O)[C@H](O)[C@H]4O)c(OC)c3)oc2c1 | 95.8 | 19.8 | Ki [6]: 24.6 µM
10 | COc1cc([C@@H](O)CC(=O)c2c(O)cc(O[C@@H]3O[C@H](CO)[C@@H](O)[C@H](O)[C@H]3O[C@@H]3OC[C@](O)(CO)[C@H]3O)cc2O)ccc1O | 50.9 | – | –
11 | COc1cc([C@@H](O)CC(=O)c2c(O)cc(O[C@@H]3O[C@H](CO)[C@@H](O)[C@H](O)[C@H]3O)cc2O)ccc1O | 33.9 | – | –
12 | COc1cc(-c2oc3cc(O)cc(O)c3c(=O)c2O[C@@H]2O[C@H](CO)[C@@H](O)[C@H](O)[C@H]2O)ccc1O | 86.5 | 30.1 | Ki [2]: 29.7 µM
13 | O=C(Oc1c(-c2ccc(O)c(O)c2)oc2cc(O)cc(O)c2c1=O)c1cc(O)c(O)c(O)c1 | 91.2 | 11.5 | Ki [5]: 21.5 µM
14 | COc1cc(O)c2c(c1)O[C@H](c1cc(O)c(O[C@@H]3O[C@H](CO)[C@@H](O)[C@H](O)[C@H]3O[C@@H]3OC[C@](O)(CO)[C@H]3O)c(OC)c1)CC2=O | 53.5 | – | –
